From patent publication US20250152592A1, “PHARMACEUTICAL COMPOSITION COMPRISING ALLOPURINOL, FEBUXOSTAT OR PHARMACEUTICALLY ACCEPTABLE SALT THEREOF FOR PREVENTION OR TREATMENT OF CHRONIC KIDNEY DISEASE IN SUBJECT HAVING HIGH SERUM URIC ACID CONCENTRATION” (Indream Healthcare Inc., priority 2022, published 2025)

Tested on: patients with gout and a history of major cardiovascular diseases
Assay: eGFR over time by average serum uric acid concentration, analysis of clinical trial data
Assay type: in vivo, human
Conditions: for eGFR Mean (95% CI): febuxostat group
Description: In order to evaluate non-inferiority of febuxostat to allopurinol related to cardiovascular risk, a clinical trial was designed and proceeded.
A multicenter, randomized, double-blind non-inferiority trial was performed. The details of the clinical trial design have been published previously. An independent data and safety monitoring committee with access to unblinded data monitored the clinical trial. The statistical analysis for the data and the safety monitoring committee was performed by an independent statistical group (WebbWrites).
The patients were regarded as having a history of major cardiovascular diseases, if they had myocardial infarction, hospitalization for unstable angina, stroke, hospitalization for transient ischemic attack, peripheral vascular disease, or diabetes mellitus symptoms. All participants provided a prior informed consent form.
The patients were randomly assigned so that they received febuxostat or allopurinol administered once a day in a double-blind manner. The randomization was stratified according to the estimated creatinine clearance at baseline (patient group having an estimated creatinine clearance ≥60 ml per minute vs patient group having an estimated creatinine clearance ≥30 and <60 ml per minute).
The dose of allopurinol was modified according to a kidney function. The patients with the estimated creatinine clearance 60 ml or more per minute i) initially received allopurinol at a dose of 300 mg once a day, and the dose was increased in 100 mg increments monthly until the patient had the serum uric acid concentration of less than 6.0 mg per deciliter or the dosage of allopurinol was 600 mg once a day. The patient having the estimated creatinine clearance of 30 ml or more and less than 60 ml per minute initially received 200 mg of allopurinol, and then the dose was increased in 100 mg increments until the patient either had the serum uric acid concentration of less than 6.0 mg per deciliter or was receiving the allopurinol dose of 400 mg once daily.
The dose of febuxostat was not modified according to the kidney function. The patients who were randomly assigned to receive febuxostat initially received 40 mg once a daily, and continued to receive the same dosage if the serum uric acid concentration was less than 6.0 mg per deciliter after 2 weeks of the treatment. If the serum uric acid concentration was higher than 6.0 mg per deciliter at 2nd week visit, the dose of febuxostat was increased to 80 mg once daily for the remainder of the trial.
During the period, the administration of a double-blind and double-dummy trial medications was guided by an interactive voice-response system which was a procedure to prevent unblinding for the patients whose dose was not adjusted. After completing dose adjustment, the urate level was concealed from the investigators, and the treatment was managed throughout the trial using the interactive voice-response system.
Outpatient visits were conducted according to the following schedule: during screening and randomization, and at 2, 4, 6, 8, 10, 12, and 24 weeks after the randomization, and every 6 months during the subsequent years of the trial. The patients with reduced kidney function or, the patients aged 65 years or older at randomization were visited at 9 and 15 months for monitoring the serum chemical profile. If the patient agreed to be monitored, but would not return for study visit, telephone contact was made, but such method was not preferred or recommended.
In order to confirm the effect of allopurinol and febuxostat on the kidney disease, the data obtained in the clinical trial described above was analyzed.

Cc1nc(-c2ccc(OCC(C)C)c(C#N)c2)sc1C(=O)O [febuxostat]
prevention or treatment of chronic kidney disease when serum uric acid maintained below 6 (blood glucose ≥126 mg/dl, DBP ≤80 mmHg, SBP ≤130 mmHg, serum uric acid ≥8 mg/dl, or gout history 10 years or more): effectively prevented or treated
eGFR Mean (95% CI) (Baseline UA≥ 8, Average UA <6, Baseline): 61.87 (60.73-63.01) ml/min/1.73 m^2
eGFR Mean (95% CI) (Baseline UA≥ 8, Average UA <6, Month 3): 62.09 (60.91-63.28) ml/min/1.73 m^2
eGFR Mean (95% CI) (Baseline UA≥ 8, Average UA <6, Month 18): 62.99 (61.62-64.36) ml/min/1.73 m^2
eGFR Mean (95% CI) (Baseline UA≥ 8, Average UA <6, Month 24): 63.15 (61.69-64.61) ml/min/1.73 m^2
eGFR Mean (95% CI) (Baseline UA≥ 8, Average UA <6, Month 30): 63.85 (62.28-65.43) ml/min/1.73 m^2
eGFR Mean (95% CI) (Baseline UA≥ 8, Average UA <6, Month 36): 64.04 (62.38-65.70) ml/min/1.73 m^2
eGFR Mean (95% CI) (Baseline UA≥ 8, Average UA <6, Month 42): 63.75 (61.92-65.59) ml/min/1.73 m^2
eGFR Mean (95% CI) (Baseline UA≥ 8, Average UA <6, Month 48): 65.32 (63.28-67.37) ml/min/1.73 m^2
eGFR Mean (95% CI) (Baseline UA≥ 8, Average UA <6, Month 54): 66.35 (64.11-68.58) ml/min/1.73 m^2
eGFR Mean (95% CI) (Baseline UA≥ 8, Average UA <6, Month 60): 66.48 (63.94-69.02) ml/min/1.73 m^2
eGFR Mean (95% CI) (Baseline UA≥ 8, Average UA <6, Week 2): 62.03 (60.84-63.22) ml/min/1.73 m^2
eGFR Mean (95% CI) (Baseline UA≥ 8, Average UA ≥6, Baseline): 63.17 (61.34-65.00) ml/min/1.73 m^2
eGFR Mean (95% CI) (Baseline UA≥ 8, Average UA ≥6, Month 3): 63.02 (61.13-64.91) ml/min/1.73 m^2
eGFR Mean (95% CI) (Baseline UA≥ 8, Average UA ≥6, Month 18): 61.52 (59.25-63.79) ml/min/1.73 m^2
eGFR Mean (95% CI) (Baseline UA≥ 8, Average UA ≥6, Month 24): 62.08 (59.58-64.57) ml/min/1.73 m^2
eGFR Mean (95% CI) (Baseline UA≥ 8, Average UA ≥6, Month 30): 60.68 (57.82-63.54) ml/min/1.73 m^2
eGFR Mean (95% CI) (Baseline UA≥ 8, Average UA ≥6, Month 36): 61.32 (58.15-64.49) ml/min/1.73 m^2
eGFR Mean (95% CI) (Baseline UA≥ 8, Average UA ≥6, Month 42): 60.90 (57.46-64.34) ml/min/1.73 m^2
eGFR Mean (95% CI) (Baseline UA≥ 8, Average UA ≥6, Month 48): 61.54 (57.81-65.27) ml/min/1.73 m^2
eGFR Mean (95% CI) (Baseline UA≥ 8, Average UA ≥6, Month 54): 62.30 (58.01-66.59) ml/min/1.73 m^2
eGFR Mean (95% CI) (Baseline UA≥ 8, Average UA ≥6, Month 60): 61.06 (55.87-66.24) ml/min/1.73 m^2
eGFR Mean (95% CI) (Baseline UA≥ 8, Average UA ≥6, Week 2): 63.18 (61.22-65.15) ml/min/1.73 m^2
eGFR Mean (95% CI) (Baseline blood glucose level ≥126, Average UA <6, Baseline): 64.23 (62.54-65.93) ml/min/1.73 m^2
eGFR Mean (95% CI) (Baseline blood glucose level ≥126, Average UA <6, Month 3): 63.54 (61.75-65.32) ml/min/1.73 m^2
eGFR Mean (95% CI) (Baseline blood glucose level ≥126, Average UA <6, Month 6): 63.33 (61.52-65.14) ml/min/1.73 m^2
eGFR Mean (95% CI) (Baseline blood glucose level ≥126, Average UA <6, Month 12): 64.32 (62.49-66.15) ml/min/1.73 m^2
eGFR Mean (95% CI) (Baseline blood glucose level ≥126, Average UA <6, Month 18): 63.84 (61.79-65.89) ml/min/1.73 m^2
eGFR Mean (95% CI) (Baseline blood glucose level ≥126, Average UA <6, Month 24): 64.49 (62.28-66.69) ml/min/1.73 m^2
eGFR Mean (95% CI) (Baseline blood glucose level ≥126, Average UA <6, Month 30): 63.64 (61.38-65.91) ml/min/1.73 m^2
eGFR Mean (95% CI) (Baseline blood glucose level ≥126, Average UA <6, Month 36): 64.30 (61.77-66.83) ml/min/1.73 m^2
eGFR Mean (95% CI) (Baseline blood glucose level ≥126, Average UA <6, Month 42): 63.94 (61.12-66.76) ml/min/1.73 m^2
eGFR Mean (95% CI) (Baseline blood glucose level ≥126, Average UA <6, Month 48): 65.35 (62.27-68.43) ml/min/1.73 m^2
eGFR Mean (95% CI) (Baseline blood glucose level ≥126, Average UA <6, Month 54): 66.66 (63.21-70.10) ml/min/1.73 m^2
eGFR Mean (95% CI) (Baseline blood glucose level ≥126, Average UA <6, Month 60): 67.78 (63.68-71.89) ml/min/1.73 m^2
eGFR Mean (95% CI) (Baseline blood glucose level ≥126, Average UA <6, Week 2): 64.06 (62.29-65.83) ml/min/1.73 m^2
eGFR Mean (95% CI) (Baseline blood glucose level ≥126, Average UA ≥6, Baseline): 65.94 (62.79-69.10) ml/min/1.73 m^2
eGFR Mean (95% CI) (Baseline blood glucose level ≥126, Average UA ≥6, Month 3): 64.51 (61.21-67.81) ml/min/1.73 m^2
eGFR Mean (95% CI) (Baseline blood glucose level ≥126, Average UA ≥6, Month 6): 64.04 (60.85-67.23) ml/min/1.73 m^2
eGFR Mean (95% CI) (Baseline blood glucose level ≥126, Average UA ≥6, Month 12): 62.81 (59.35-66.28) ml/min/1.73 m^2
eGFR Mean (95% CI) (Baseline blood glucose level ≥126, Average UA ≥6, Month 18): 62.28 (58.22-66.35) ml/min/1.73 m^2
eGFR Mean (95% CI) (Baseline blood glucose level ≥126, Average UA ≥6, Month 24): 62.44 (58.21-66.68) ml/min/1.73 m^2
eGFR Mean (95% CI) (Baseline blood glucose level ≥126, Average UA ≥6, Month 30): 61.66 (57.17-66.16) ml/min/1.73 m^2
eGFR Mean (95% CI) (Baseline blood glucose level ≥126, Average UA ≥6, Month 36): 62.64 (57.30-67.99) ml/min/1.73 m^2
eGFR Mean (95% CI) (Baseline blood glucose level ≥126, Average UA ≥6, Month 42): 62.33 (56.68-67.99) ml/min/1.73 m^2
eGFR Mean (95% CI) (Baseline blood glucose level ≥126, Average UA ≥6, Month 48): 60.51 (54.59-66.44) ml/min/1.73 m^2
eGFR Mean (95% CI) (Baseline blood glucose level ≥126, Average UA ≥6, Month 54): 60.70 (53.73-67.67) ml/min/1.73 m^2
eGFR Mean (95% CI) (Baseline blood glucose level ≥126, Average UA ≥6, Month 60): 60.00 (50.87-69.14) ml/min/1.73 m^2
eGFR Mean (95% CI) (Baseline blood glucose level ≥126, Average UA ≥6, Week 2): 64.56 (61.25-67.87) ml/min/1.73 m^2
eGFR Mean (95% CI) (DBP <80, Average UA <6, Baseline): 62.24 (61.02-63.45) ml/min/1.73 m^2
eGFR Mean (95% CI) (DBP <80, Average UA <6, Month 3): 61.85 (60.63-63.08) ml/min/1.73 m^2
eGFR Mean (95% CI) (DBP <80, Average UA <6, Month 6): 61.84 (60.56-63.11) ml/min/1.73 m^2
eGFR Mean (95% CI) (DBP <80, Average UA <6, Month 12): 63.06 (61.79-64.33) ml/min/1.73 m^2
